Patent publication US10669290B2, “Beta-lactamase inhibitors” (priority 2012, dated 2020)
In brackets after ≈: the same amount, converted by molar mass.

Assays:
K.P. 156319 KPC-3 = experiment: Broth microdilution MIC, K. pneumoniae 156319; assay type: cell-based
E. coli ESBL4 CTX-M-15 = experiment: Broth microdilution MIC, E. coli ESBL4; assay type: cell-based; conditions: fixed ceftazidime 4 μg/mL, CAMHB, 16-20 hours 37° C.
Method in brief: (§1)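 Test compound was 2-fold serially diluted in cation-adjusted Mueller Hinton broth (final 32 to 0.25 μg/mL) under a fixed β-lactam overlay at 4 μg/ml. Plates were inoculated per CLSI broth microdilution with 3-5 h cultures, incubated 16-20 hours at 37° C, and MIC was read visually.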

KPC-2 = target: T1, KPC-2 (Klebsiella pneumoniae, UniProt Q9F663); experiment: β-Lactamase inhibition, KPC-2 (imipenem substrate); assay type: biochemical
T1 construct: made in house; host or cells: E. coli BL21 (DE3)
T1 sequence (Q9F663 25-293 limits assumed): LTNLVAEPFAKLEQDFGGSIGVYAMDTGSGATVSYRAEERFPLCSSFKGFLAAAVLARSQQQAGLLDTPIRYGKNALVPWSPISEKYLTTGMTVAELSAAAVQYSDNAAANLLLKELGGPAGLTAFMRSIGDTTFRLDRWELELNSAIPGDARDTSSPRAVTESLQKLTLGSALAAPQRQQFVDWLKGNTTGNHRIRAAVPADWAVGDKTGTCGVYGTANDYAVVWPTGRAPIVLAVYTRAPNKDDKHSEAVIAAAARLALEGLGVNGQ
Method: (§2) For SHV-5, Kpc-2, p99AmpC and OXA-1 β-lactamases, E. coli BL21 (DE3) bacterial cells carrying expression plasmids (expressed as native untagged proteins) for the individual β-lactamases were grown in 1 L of Superbroth (Teknova Inc. Hollister, Calif.) supplemented with 100 μg/ml kanamycin selection and 1×5052 (0.5% glycerol, 0.05% glucose and 0.2% α-lactose) at 35° C. for 18-20 hours. Cells were harvested by centrifugation (4,000×g, 4° C., 20 min), resuspended in 50 ml of 10 mM HEPES pH 7.5 ( 1/20 of the initial volume). The cells were lysed by sonication (5 pulses of 45 seconds) at 45 W on ice. The lysates were clarified by centrifugation at 10,000×g for 40 minutes at 4° C. Samples were diluted 5-fold in 50 mM sodium acetate pH 5.0, stored overnight at 4° C., after which they were centrifuged at 10,000×g for 30 minutes to clarify, and filtered through 0.45 µm filters. The samples were loaded onto a 5 ml Capto S sepharose cation exchange column (GE Healthcare) pre-equilibrated with 50 mM sodium acetate pH 5.0. […] Active fractions were pooled concentrated, quantitated by BCA protein determination (Thermo Scientific, Rockford, Ill.), dialyzed into PBS and frozen at −80° C. in 20% glycerol until use.
(§3) An equal volume of diluted enzyme stock was added, and the plates were incubated at 37° C. for 15 min. […] Absorbance at 486 nm was immediately monitored for 10 min using a Biotek Powerwave XS2 microplate spectrophotometer using the GEN5 software package (Biotek Instruments, Winooski Vt.). In an analogous fashion, imipenem was used as substrate for Kpc-2 and Cefotaxime was used for SHV-5, while changes in absorbance upon hydrolysis of the β-lactam ring were monitored at 300 nm and 260 nm respectively in UV-transparent 96-well microtiter assay plates. Maximum rates of hydrolysis were compared to those in control wells (without inhibitors), and percentages of enzyme inhibition were calculated for each concentration of inhibitor. […]

OXA-1 = target: T2, OXA-1 (Escherichia coli, UniProt P13661); experiment: β-Lactamase inhibition, OXA-1 (nitrocefin substrate); assay type: biochemical
T2 construct: made in house; host or cells: E. coli BL21 (DE3)
T2 sequence (P13661 26-276): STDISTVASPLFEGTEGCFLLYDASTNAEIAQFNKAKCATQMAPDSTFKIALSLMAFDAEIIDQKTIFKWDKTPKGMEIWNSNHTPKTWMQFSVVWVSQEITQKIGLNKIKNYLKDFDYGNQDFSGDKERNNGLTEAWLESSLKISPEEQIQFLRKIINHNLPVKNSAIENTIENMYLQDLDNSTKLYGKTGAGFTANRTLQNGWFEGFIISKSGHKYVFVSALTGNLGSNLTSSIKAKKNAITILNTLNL
Method: as §2, §3

E. cl 144200 p99 AmpC = experiment: Broth microdilution MIC, E. cloacae 144200; assay type: cell-based; conditions: fixed ceftazidime 4 μg/mL, CAMHB, 16-20 hours 37° C.
Method in brief: as §1

K.P. A-1797 KPC-2 VIM-4 [1] = experiment: Broth microdilution MIC, K. pneumoniae A-1797; assay type: cell-based; conditions: fixed meropenem 4 μg/mL, CAMHB, 16-20 hours 37° C.
P. aerug. Ps296 VIM-2 = experiment: Broth microdilution MIC, P. aeruginosa Ps296; assay type: cell-based; conditions: fixed meropenem 4 μg/mL, CAMHB, 16-20 hours 37° C.
Method in brief: as §1

SHV-5 = target: T3, SHV-5 (Klebsiella pneumoniae, UniProt P0A3M1); experiment: β-Lactamase inhibition, SHV-5 (cefotaxime substrate); assay type: biochemical
T3 construct: made in house; host or cells: E. coli BL21 (DE3)
T3 sequence (P0A3M1 22-286): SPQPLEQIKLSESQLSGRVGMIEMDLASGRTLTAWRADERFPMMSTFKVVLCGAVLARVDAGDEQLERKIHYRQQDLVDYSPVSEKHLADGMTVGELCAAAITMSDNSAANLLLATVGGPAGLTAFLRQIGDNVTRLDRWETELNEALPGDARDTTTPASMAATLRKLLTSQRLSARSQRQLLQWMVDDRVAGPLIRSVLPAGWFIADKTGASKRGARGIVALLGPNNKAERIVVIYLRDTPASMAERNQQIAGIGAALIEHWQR
Method: as §2, §3

VIM-2 = target: T4, VIM-2 (Escherichia coli, UniProt Q5U7L7); experiment: β-Lactamase inhibition, VIM-2 (nitrocefin substrate); assay type: biochemical
T4 construct: made in house; host or cells: E. coli BL21 (DE3)
Method: as §2, with “use. […]” for “use.”
as §3

p99 AmpC = target: T5, p99 AmpC (Enterobacter cloacae, UniProt P05364); experiment: β-Lactamase inhibition, p99 AmpC (nitrocefin substrate); assay type: biochemical
T5 construct: made in house; host or cells: E. coli BL21 (DE3)
T5 sequence (P05364 21-381): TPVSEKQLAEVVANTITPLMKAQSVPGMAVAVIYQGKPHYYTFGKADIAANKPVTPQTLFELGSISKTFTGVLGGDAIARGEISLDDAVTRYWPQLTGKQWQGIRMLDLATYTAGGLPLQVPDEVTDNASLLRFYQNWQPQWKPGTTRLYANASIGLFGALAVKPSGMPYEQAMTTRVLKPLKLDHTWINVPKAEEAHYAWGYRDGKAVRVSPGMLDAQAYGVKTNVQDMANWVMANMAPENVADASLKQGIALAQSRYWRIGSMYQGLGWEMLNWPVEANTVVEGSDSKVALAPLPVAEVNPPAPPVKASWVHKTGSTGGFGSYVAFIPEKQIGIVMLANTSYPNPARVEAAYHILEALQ
Method: For SHV-5, Kpc-2, p99AmpC and OXA-1 β-lactamases, E. coli BL21 (DE3) bacterial cells carrying expression plasmids (expressed as native untagged proteins) for the individual β-lactamases were grown in 1 L of Superbroth (Teknova Inc. Hollister, Calif.) supplemented with 100 μg/ml kanamycin selection and 1×5052 (0.5% glycerol, 0.05% glucose and 0.2% α-lactose) at 35° C. for 18-20 hours. Cells were harvested by centrifugation (4,000×g, 4° C., 20 min), resuspended in 50 ml of 10 mM HEPES pH 7.5 ( 1/20 of the initial volume). The cells were lysed by sonication (5 pulses of 45 seconds) at 45 W on ice. The lysates were clarified by centrifugation at 10,000×g for 40 minutes at 4° C. Samples were diluted 5-fold in 50 mM sodium acetate pH 5.0, stored overnight at 4° C., after which they were centrifuged at 10,000×g for 30 minutes to clarify, and filtered through 0.45 µm filters. The samples were loaded onto a 5 ml Capto S sepharose cation exchange column (GE Healthcare) pre-equilibrated with 50 mM sodium acetate pH 5.0. The column was washed with 5 column volumes of 50 mM sodium acetate pH 5.0 to wash out unbound protein and a linear gradient of NaCl (0 to 500 mM) was used to elute the protein (over 16 CV) from the column. Fractions were assayed for β-lactamase activity using Centa (Calbiochem, Gibbstown, N.J.) or Nitrocefin (EMD Millipore chemicals, Darmstadt, Germany) as a reporter β-lactamase substrate for activity in the isolated fractions. Active fractions were pooled, concentrated and further purified by gel filtration chromatography on a Superdex 75 prep grade gel filtration column (GE Healthcare, Piscataway, N.J.) pre-equilibrated in 50 mM Hepes pH 7.5, 150 mM NaCl. Active fractions were pooled concentrated, quantitated by BCA protein determination (Thermo Scientific, Rockford, Ill.), dialyzed into PBS and frozen at −80° C. in 20% glycerol until use.
An equal volume of diluted enzyme stock was added, and the plates were incubated at 37° C. for 15 min. Nitrocefin was used as substrate for p99 AmpC, VIM-2 and OXA-1 and dispensed into each well at a final concentration of 100 μM. Absorbance at 486 nm was immediately monitored for 10 min using a Biotek Powerwave XS2 microplate spectrophotometer using the GEN5 software package (Biotek Instruments, Winooski Vt.). In an analogous fashion, imipenem was used as substrate for Kpc-2 and Cefotaxime was used for SHV-5, while changes in absorbance upon hydrolysis of the β-lactam ring were monitored at 300 nm and 260 nm respectively in UV-transparent 96-well microtiter assay plates. Maximum rates of hydrolysis were compared to those in control wells (without inhibitors), and percentages of enzyme inhibition were calculated for each concentration of inhibitor. The concentration of inhibitor needed to reduce the initial rate of hydrolysis of substrate by 50% (IC50) was calculated as the residual activity of β-lactamase at 486 nm using GraFit version 7 kinetics software package (Erithacus Software, Surrey, UK).
Using the methodology described above, examples of the current invention were evaluated for their ability to inhibit β-lactamase enzymes from all four Ambler classifications (A through D). […] NT=Not tested.

K.P. A-1797 KPC-2 VIM-4 [2] = experiment: Broth microdilution MIC, K. pneumoniae A-1797; assay type: cell-based; conditions: Klebsiella pneumoniae; partner antibiotic alone, K. pneumoniae expressing KPC-2 and VIM-4
S. aureus MSSA-7 PC-1 = experiment: Broth microdilution MIC, S. aureus MSSA-7; assay type: cell-based; conditions: Staphylococcus aureus, partner antibiotic alone, S. aureus producing Class A penicillinase PC-1

## N[C@@H]1CC[C@@H](C(=O)N[C@H]2Cc3cccc(C(=O)O)c3OB2O)C[C@H]1N (mixture of isomers) [Example 20, (3R)-3-[[(1S,3S,4S)-3,4-diaminocyclohexanecarbonyl]amino]-2-hydroxy-3,4-dihydro-1,2-benzoxaborinine-8-carboxylic acid and (3R)-3-[[(1R,3R,4R)-3,4-diaminocyclohexanecarbonyl]amino]-2-hydroxy-3,4-dihydro-1,2-benzoxaborinine-8-carboxylic acid]
K.P. 156319 KPC-3; fixed meropenem 4 μg/mL, CAMHB, 16-20 hours 37° C.
  MIC of exemplary compounds in presence of fixed β-lactams, Fixed Mero, K.P. 156319 KPC-3: C (C represents the MIC in the presence of <4 μg/mL of a β-lactamase inhibitor of exemplary compounds)
E. coli ESBL4 CTX-M-15
  MIC of exemplary compounds in presence of fixed β-lactams, Fixed CAZ, E. coli ESBL4 CTX-M-15: C (C represents the MIC in the presence of <4 μg/mL of a β-lactamase inhibitor of exemplary compounds)
KPC-2
  IC50: 100 to 1000 nM
OXA-1
  IC50: 100 to 1000 nM
E. cl 144200 p99 AmpC
  MIC of exemplary compounds in presence of fixed β-lactams, Fixed CAZ, E. cl 144200 p99 AmpC: C (C represents the MIC in the presence of <4 μg/mL of a β-lactamase inhibitor of exemplary compounds)
K.P. A-1797 KPC-2 VIM-4 [1]
  MIC of exemplary compounds in presence of fixed β-lactams, Fixed Mero, K.P. A-1797 KPC-2 VIM-4: B (B represents the MIC in the presence of between 8 and 32 μg/mL of a β-lactamase inhibitor of exemplary compounds)
P. aerug. Ps296 VIM-2
  MIC of exemplary compounds in presence of fixed β-lactams, Fixed Mero, P. aerug. Ps296 VIM-2: C (C represents the MIC in the presence of <4 μg/mL of a β-lactamase inhibitor of exemplary compounds)
SHV-5
  IC50: 1000 to 10000 nM
VIM-2
  IC50: < 100 nM
p99 AmpC
  IC50: < 100 nM

## C[C@@H](O)[C@H]1C(=O)N2C(C(=O)O)=C(S[C@@H]3CN[C@H](C(=O)N(C)C)C3)[C@H](C)[C@H]12 [Meropenem, reference compound]
K.P. 156319 KPC-3; Klebsiella pneumoniae, read-out: MIC alone
  MIC: > 128 µg/mL
K.P. A-1797 KPC-2 VIM-4 [2]
  MIC: 64 µg/mL (≈ 167 µM)

## CCN1CCN(C(=O)N[C@@H](C(=O)N[C@@H]2C(=O)N3[C@@H]2SC(C)(C)[C@@H]3C(=O)O)c2ccccc2)C(=O)C1=O [Piperacillin]
S. aureus MSSA-7 PC-1
  MIC: 64 µg/mL (≈ 124 µM)
